Assays:
[1] = tested on: H3S10 ph near the E2F2 promoter in A549 cells; assay: ChIP assay of H3S10 ph near the E2F2 promoter; assay type: cell-based; settings: TZ47-treated A549 cells
Experimental: A549 cells were treated by different concentrations of TZ47, and then total RNAs and total proteins of cells were extracted to detect the expression of gene E2F2. […] To further verify the above results, A549 cells were treated with TZ47 and extracted for chromatin, and the chromatin and an H3S10 ph-specific antibody were then used in the ChIP assay. […] It can be seen from the above tests that TZ47 can inhibit the AURKB activity and further inhibit the level of AURKB histone substrate H3S10 ph on the promoter of gene E2F2, affecting the expression of gene E2F2.
The specific steps were described as follows. • a. Detailed steps and conditions for Western blot assay and real-time quantitative PCR test have been described in the above Examples. • b. Chromatin co-immunoprecipitation (ChIP) • 1) In vivo cross-linking of DNA-protein complex
2×10^6-7 cells were collected by low-speed centrifugation, resuspended in 20 mL of RPMI 1640 medium, added with 550 μL of a 37% formalin solution in a fuming cupboard to a final concentration of 1% and incubated for 10 min. The system was mixed 2-3 times during the incubation. • 2) Termination of cross-linking
The cross-linking system was added with 1.35 mL of 2 M glycine (final concentration: 0.1 M), mixed uniformly and incubated for 10 min. […]
The OD260 value of the supernatant was determined and used to calculate the DNA concentration. […]

GST protein = GST protein (Schistosoma japonicum, UniProt P08515); assay: Microscale thermophoresis (MST) binding to control GST protein
AURKB = AURKB (Homo sapiens, UniProt Q96GD4); assay: In vitro phosphorylation (kinase activity) assay with Flag-AURKB and histone H3; assay type: biochemical; parameters: made in house; host or cells: 293T cells (transfected with pcDNA-AURKB-Flag); settings: 2 μM of TZ47, Flag-AURKB, histone H3 substrate
Experimental: Thus, it is speculated that the treatment affected the activity of a kinase which was able to phosphorylate the H3S10. The following procedures were conducted to verify whether TZ47 inhibited the activity of AURKB directly. First, prokaryotic expression of AURKB protein and purification were performed and then a microscale thermophoresis (MST) was used to detect the binding between TZ47 and AURKB protein by testing the change of microscale thermophoresis caused by the hydrated layer (generally derived from the change of the structure/conformation of biomolecules) based on the directional movement of particles in a microscopic temperature gradient. […] Flag-tagged AURKB protein was then enriched by M2-flag beads (anti-Flag antibody conjugated) from the lysed liquid of 293T cells and used in the in-vitro kinase activity analysis. It can be seen from FIGS. 6A-6B that the Flag-AURKB protein had kinase activity and can phosphorylate histone H3.
The components were mixed according to the above specifications, and reacted at 30° C. for 30 min. After the reaction was completed, the reaction mixture was subjected to western blot assay.

Sequence of GST protein (P08515 whole entry): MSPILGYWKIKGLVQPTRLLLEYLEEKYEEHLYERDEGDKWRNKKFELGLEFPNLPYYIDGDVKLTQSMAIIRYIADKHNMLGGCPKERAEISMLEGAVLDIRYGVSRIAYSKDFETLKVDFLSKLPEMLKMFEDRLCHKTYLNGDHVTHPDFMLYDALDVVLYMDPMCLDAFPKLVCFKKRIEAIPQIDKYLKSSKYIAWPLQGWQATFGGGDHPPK
Sequence of AURKB (Q96GD4 1-345 isoform Q96GD4-5): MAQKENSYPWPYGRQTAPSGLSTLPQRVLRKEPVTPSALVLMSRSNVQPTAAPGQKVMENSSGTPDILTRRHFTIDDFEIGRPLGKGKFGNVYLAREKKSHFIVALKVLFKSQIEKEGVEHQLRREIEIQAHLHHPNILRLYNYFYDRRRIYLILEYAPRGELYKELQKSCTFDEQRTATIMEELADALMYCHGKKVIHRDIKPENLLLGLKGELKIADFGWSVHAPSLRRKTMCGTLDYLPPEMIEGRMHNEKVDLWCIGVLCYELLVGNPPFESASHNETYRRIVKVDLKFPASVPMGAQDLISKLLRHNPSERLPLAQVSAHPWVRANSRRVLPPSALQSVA

binding to control GST protein (GST protein): did not bind | kinase activity of AURKB (AURKB): completely inhibited
Compound: c1ccc2c(Cc3[nH]c4ccccc4c3Cc3c[nH]c4ccccc34)c[nH]c2c1 [TZ47]
enrichment of histone H3S10 ph near the E2F2 promoter [1]: significantly reduced

— patent US11840525B2, “Use of AURKB small-molecule inhibitors for treatment of non-small cell lung cancer” (Nanjing China-Australia Institute of Translational Medicine …, priority 2016, dated 2023)
